Reference: paper PMC5433098, “Intrinsic Toxin-Derived Peptides Destabilize and Inactivate Clostridium difficile TcdB” (mBio, 2017)

Experiments:
TcdB1 [1] = assay: Cytotoxicity assay in CHO-K1 cells (CCK-8); assay type: cell-based, Clostridium difficile; conditions: 24 h, 50 µM peptide, n = 3
Protocol: (§1) In cytotoxicity assays, CHO-K1 cells were seeded in 96-well plates at a density of 1.0 × 10^4 cells/well and allowed to attach overnight. Cells were incubated with toxin or toxin plus peptide for 24 h, and then cell viability was quantified by the cell counting kit 8 (CCK-8) assay (Sigma), a WST-8 dye-based colorimetric reaction.

TcdB2 [2] = assay: Cytotoxicity assay in CHO-K1 cells (CCK-8); assay type: cell-based, Clostridium difficile; conditions: 24 h, 50 µM peptide, n = 3
Protocol: as §1

[3] = Oligomerization by BS3 cross-linking and SDS-PAGE; assay type: physicochemical; conditions: 1.4 mM peptide, 5 mM BS3, 25 mM HEPES pH 7.4, 150 mM NaCl, 30 min 25°C; 4 to 20% SDS-PAGE, Coomassie
Protocol: Peptides were cross-linked using bis(sulfosuccinimidyl)suberate (BS^3), which is a water-soluble homobifunctional cross-linking agent that reacts with primary amine groups. The cross-linking reaction was performed with 1.4 mM peptide and 5 mM BS^3 in a buffer consisting of 25 mM HEPES (pH 7.4) and 150 mM NaCl. The reaction proceeded for 30 min at 25°C and then was quenched with 100 mM Tris, pH 8.0.

TcdB [4] = assay: Dialysis (50-kDa cutoff) followed by cytotoxicity assay in CHO-K1 cells; assay type: cell-based, Clostridium difficile; conditions: for TcdB-inhibitory activity retained after dialysis: 125 μM inhibitor in serum-free F-12–K, 50-kDa-cutoff membrane into PBS, about 62.5 μM tested, CHO-K1, 24 h, 0.4 pM TcdB, n = 3
Protocol: as §1
Inhibitors were diluted to 125 μM in F-12–K medium lacking FBS. Then, 1 ml of the diluted inhibitor was dialyzed with a 50-kDa-cutoff membrane into 2 liters of PBS while stirring. After 3 h, the PBS was discarded and replaced with an additional 1.5 liters of PBS. After 2 more hours of stirring dialysis, the inhibitors were removed from the dialysis tube and diluted into F-12–K medium containing 20% FBS. This produced an inhibitor concentration of approximately 62.5 μM that was then tested for TcdB inhibition using a cytotoxicity assay described above. As controls, a portion of the diluted inhibitors were subjected to mock dialysis conditions and also tested in a cytotoxicity assay.

TcdA = assay: Cytotoxicity assay in CHO-K1 cells; assay type: cell-based, Clostridium difficile; conditions: 24 h, 50 µM peptide, n = 3
Protocol: as §1

TcdB2Δ1853–2366 [5] = assay: Cytotoxicity assay in CHO-K1 cells; assay type: cell-based, Clostridium difficile; conditions: 24 h, n = 3
Protocol: as §1

TcdB [6] = assay: Intracellular Rac1 glucosylation in CHO-K1 cells (immunoblot); assay type: cell-based, Clostridium difficile; conditions: TcdB 0.037-3.7 pM, 25 h, 50 µM peptide
Protocol: CHO-K1 cells were cultured as described above and were seeded the day before the experiment in 24-well plates at a density of 5.0 × 10^4 cells/well. TcdB was then combined with peptide in complete culture medium and added to cells. Following this exposure, total proteins were extracted by removing culture medium and adding cold lysis buffer (1% SDS, 50 mM Tris-HCl [pH 7.4], 5 mM EDTA, and a protease inhibitor mixture). For each condition, equal amounts of total protein were analyzed by immunoblot probing with a mouse monoclonal antibody to total Rac1 (EMD Millipore; catalog no. 05-389) or a mouse monoclonal antibody recognizing nonglucosylated Rac1 (BD Bioscience; catalog no. 610651).

TcdB [7] = assay: In vitro Rac1 glucosylation assay; assay type: biochemical, Clostridium difficile; conditions: TcdB 1.2-24 nM, 400 nM GST-Rac1, 40 μM UDP-glucose, 37°C 1 h, 50 µM peptide, n = 3
Protocol: (§2) To determine how PepB2 influences the glucosylation activity of TcdB, 400 nM purified GST-Rac1 and 40 μM UDP-glucose were combined with a range of concentrations of TcdB (1.2 nM to 24 nM) or GTD (0.5 nM to 25 nM). These reactions were performed in 20 μl of buffer consisting of 50 mM HEPES (pH 7.5), 100 mM KCl, 2 mM MgCl2, 1 mM MnCl2, and 100 μg/ml BSA. The reactions were carried out at 37°C for 1 h and were stopped by heating the samples at 95°C for 7 min in sample buffer (62.5 mM Tris-HCl [pH 6.8], 2% SDS, 10% glycerol, 5% β-mercaptoethanol, and 0.001% bromphenol blue). An immunoblotting assay was then performed by probing with a mouse monoclonal antibody to total Rac1 (EMD Millipore; catalog no. 05-389) or a mouse monoclonal antibody recognizing nonglucosylated Rac1 (BD Bioscience; catalog no. 610651).

[8] = tested on: purified recombinant GTD (TcdB aa 1 to 543); assay: In vitro Rac1 glucosylation assay; assay type: biochemical, Clostridium difficile; conditions: GTD 0.5-25 nM, 50 µM peptide, n = 2
Protocol: as §2

TcdB [9] = assay: In vitro autoprocessing assay with IP6; assay type: biochemical, Clostridium difficile; conditions: 37 pM TcdB, 500 µM IP6, 1 h 37°C, 50 µM peptide, n = 4
Protocol: TcdB autoprocessing was activated by incubating 37 pM TcdB with 500 µM inositol hexakisphosphate (IP6) for 1 h at 37°C in a buffer consisting of 50 mM HEPES (pH 7.5), 150 mM NaCl, and 20 mM dithiothreitol (DTT). After the reaction was stopped by heating the samples at 95°C for 7 min in SDS-PAGE sample buffer, cleavage of TcdB was evaluated by an immunoblot assay probing with antibodies to the amino-terminal domain of TcdB (R&D Systems; catalog no. AF6246).

TcdB [10] = assay: TcdB associating with CHO-K1 cells (immunoblot); assay type: cell-based, Clostridium difficile; conditions: 37°C, 4 nM TcdB, 50 µM peptide
Protocol: CHO-K1 cells were cultured as described above and were seeded the day before the experiment in 12-well plates at a density of 1.0 × 10^5 cells/well. These cells were then exposed for 10 min or 30 min at 37°C to 4 nM of TcdB in the presence and absence of peptide. After this exposure, the cells were then washed twice with 1 ml of complete medium, and then total proteins were extracted by adding cold lysis buffer (1% SDS, 50 mM Tris-HCl [pH 7.4], 5 mM EDTA, and a protease inhibitor mixture). For each condition, equal amounts of total protein were analyzed by immunoblot probing with antibodies to the amino-terminal domain of TcdB (R&D Systems; catalog no. AF6246) or an antibody to glyceraldehyde-3-phosphate dehydrogenase (GAPDH) (Abcam; catalog no. AB8245).

TcdB2 [11] = assay: Surface plasmon resonance (SPR); assay type: binding, Clostridium difficile
Protocol: (§3) Surface plasmon resonance (SPR) analysis was performed using a Biacore 3000 instrument (OMRF Biacore Core Facility). TcdB2, TcdB2Δ1853–2366, TcdB2_1851–2366, or BSA was captured on a CM5 sensor chip via amine coupling chemistry based on EDC/N-hydroxysuccinimide (NHS) activation of the carboxymethyl groups of the sensor chip surface. For TcdB2 conjugation, 1 μM TcdB2 or TcdB2Δ1853–2366 was injected at a flow rate of 10 μl/min. TcdB2_1851–2366 was injected at a concentration of 2.5 μM with a flow rate of 10 μl/min. After protein conjugation, ethanolamine was passed over the sensor chip to deactivate unreacted NHS esters. The running buffer used for the binding experiments consisted of 25 mM HEPES (pH 7.4), 150 mM NaCl, and 0.01% Tween 20, and the chip regeneration buffer consisted of 50 mM NaOH and 1 M NaCl.

TcdB2Δ1853–2366 [12] = assay: Surface plasmon resonance (SPR); assay type: binding, Clostridium difficile; conditions: 40 µM PepB2, 20 μl/min, 25°C
Protocol: as §3

[13] = tested on: bovine serum albumin (BSA); assay: Surface plasmon resonance (SPR), reference channel; assay type: binding
Protocol: as §3

[14] = tested on: Bacillus anthracis lethal toxin (LT)
TcdB1 [15] = assay: Transepithelial electrical resistance (TER) in T84 cells; conditions: polarized T84 cells, 40 pM TcdB1, 50 µM peptide, n = 4

With “PepB1: peptide based on the 1769-to-1787 region of TcdB1 (NVFKDKTLANKLSFNFSDK; UniProt P18177 1769-1787, looked up, fragment)” the “inhibition of TcdB1 cytotoxicity” value (TcdB1 [1]) was “did not inhibit the cytotoxicity”, the “inhibition of TcdB2 cytotoxicity” value (TcdB2 [2]) was “did not inhibit the cytotoxicity” and the “oligomerization after BS3 cross-linking” value [3] was “migrated into the gel in a similar pattern as uncross-linked control peptides”.

For `COC(=O)CC[C@@H](C)[C@H]1CC[C@H]2[C@@H]3[C@H](O)C[C@@H]4C[C@H](O)CC[C@]4(C)[C@H]3C[C@H](O)[C@]12C` [methyl cholate, reference compound], the “TcdB-inhibitory activity retained after dialysis” value (TcdB [4]) was “toxin-inhibitory activity was lost”.

For `CC[C@H](C)[C@H](NC(=O)[C@H](CCCCN)NC(=O)[C@H](CC(=O)O)NC(=O)[C@H](CO)NC(=O)[C@@H](NC(=O)[C@@H](NC(=O)[C@H](CC(N)=O)NC(=O)CNC(=O)[C@H](CCCCN)NC(=O)[C@H](Cc1ccccc1)NC(=O)[C@@H](NC(=O)[C@@H](N)CC(N)=O)C(C)C)[C@@H](C)O)[C@@H](C)CC)C(=O)N[C@@H](CO)C(=O)N[C@@H](Cc1ccccc1)C(=O)N[C@@H](CC(N)=O)C(=O)N[C@@H](Cc1ccccc1)C(=O)N[C@@H](CO)C(=O)N[C@@H](CC(=O)O)C(=O)N[C@@H](CCCCN)C(=O)O` [PepB2], the “increase of the 50% toxic concentration (TC50) of TcdB1” value (TcdB1 [1]; range of toxin concentrations) was 500 fold, the “increase of the 50% toxic concentration (TC50) of TcdB2” value (TcdB2 [2]; range of toxin concentrations) was 200 fold and the “inhibition of TcdA cytotoxicity” value (TcdA) was “did not block cytotoxicity”. For the same compound, the “decrease in sensitivity of TcdB2Δ1853–2366 to peptide relative to full-length TcdB2” value (TcdB2Δ1853–2366 [5]) was 10 fold, the “effect on Rac1 glucosylation by TcdB in treated cells” value (TcdB [6]) was “prevented Rac1 glucosylation by TcdB in treated cells” and the “effect on in vitro glucosylation of Rac1 by TcdB” value (TcdB [7]) was “did not suppress the in vitro glucosylation of Rac1 by TcdB but instead appeared to increase enzymatic activity”. The “effect on glucosyltransferase activity of purified recombinant GTD” value [8] was “no effect on the glucosyltransferase activity”, the “effect on IP6-induced TcdB autoproteolysis” value (TcdB [9]) was “enhanced the efficiency of IP6-induced TcdB autoproteolysis” and the “TcdB association with cells, 10 min” value (TcdB [10]; 10 min, n = 4) was “significantly reduced”. For the same compound, the “TcdB association with cells, 30 min” value (TcdB [10]; 30 min) was “not reduced”, the “TcdB proteolytic cleavage on cells, 30 min” value (TcdB [10]; 30 min) was “causes TcdB to become susceptible to proteolytic cleavage” and the “binding to sensor chip-immobilized TcdB” value (TcdB2 [11]; SPR, Biacore 3000, CM5 chip, 5 μl/min, 25°C, BSA reference subtracted) was “binds TcdB”. The “number of peptide molecules bound per single molecule of TcdB” value (TcdB2 [11]; calculated from change in response units on immobilized TcdB) was “approximately 250 molecules”, the “binding to TcdB2Δ1853–2366 compared with equal moles of TcdB2” value (TcdB2Δ1853–2366 [12]) was “much higher levels of PepB2 bound TcdB2 than TcdB2Δ1853–2366” and the “binding to BSA-coated reference channel” value [13] was “did not bind”. For the same compound, the “oligomerization after BS3 cross-linking” value [3] was “unable to migrate by SDS-PAGE”, the “TcdB-inhibitory activity retained after dialysis” value (TcdB [4]) was “TcdB-inhibitory activity was not removed” and the “size of inhibitory oligomer” value (TcdB [4]; retained by 50-kDa-cutoff dialysis membrane) was > 50 kDa. The “inhibition of Bacillus anthracis lethal toxin cytotoxicity” value [14] was “did not block cytotoxicity” and the “effect on TcdB-mediated disruption of transepithelial resistance” value (TcdB1 [15]) was “prevented TcdB-mediated disruption of transepithelial resistance”.
